Assay results: patent publication US7094796B2, “Coupling product between tryptamine and an alpha-amino acid, process for its preparation as well as its application in the neurocosmetic field” (Exsymol S.A.M., priority 2002, dated 2006)

Legend:
PC 12 cells [1] = assay: Test 1: cytoprotecting effect on PC 12 cells submitted to a cytotoxic UV-B stress (LDH activity in culture medium); format: cell-based, murine; conditions: UV-B 285 nm, 500 mJ/cm^2, average of six measures
Source text: (§1) The cell model chosen by the applicant in all its in vitro experimentations was a pheochromocytomal cell line with murine origin, called “PC 12” and commonly accepted for neurobiological and neurochemical studies on nervous cells (Greene L. A. and al., Proc. Natl. Acad. Sci. USA (1976), vol.73, pp.2424–2428), in particular on peripheral neurones which innervate skin (Keilbaugh S. A., Biochem. Pharm. (1997), vol.53, pp.1485–1492).
(§2) The PC 12 line was used after differentiation according to a method described in the literature (Greene L. A. et al. in Culturing Nerve Cells (1991), MIT Press, Cambridge, Mass., pp.207–225).
Test 1: cytoprotecting effect of the alpha-L-glutamyltryptamine, L-methionyltryptamine and L-tryptophantryptamine on PC 12 cells submitted to a UV-B stress. Comparison with a reference antioxidant. A cytotoxic UV-B stress is applied on the nervous cell model (285 nm±5; 500 mJ/cm^2), in the absence then in the presence of active ingredient, successively the alpha-L-glutamyltryptamine (Glu-Tryp), L-methionyltryptamine (Met-Tryp) and L-tryptophantryptamine (Trp-Tryp).
The cell death is then evaluated by the measure of lactico-dehydrogenase activity (LDH) in the culture medium. This activity is proportional to the cell lysis which follows the cell death.
The results are expressed in % of protection and are given by the ratio of LDH activity according to the following equation: […]
The results are compared to the ones obtained with a reference antioxidant which is vitamin E (vit.E).
Validity of the test is checked by the measure of LDH activity in the culture medium of non stressed cells (negative check). Values listed in the tables hereafter are average values obtained from six measures.

PC 12 cells [2] = assay: Test 3: anti-inflammatory effect on PC 12 cells submitted to a UV-B pro-inflammatory stress (IL-6 production); format: cell-based, murine; conditions: UV-B 285 nm, 150 mJ/cm^2, non treated irradiated control 400, non irradiated control 0
Source text: as §1, §2
Test 3: anti-inflammatory effect of the alpha-L-glutamyltryptamine, L-methionyltryptamine and L-tryptophantryptamine on PC 12 cells submitted to a pro-inflammatory stress. Comparison with two controls (PC 12): the first one is non stressed, the second one is stressed but non treated
A UV-B pro-inflammatory stress is applied on PC 12 cells (285 nm±5; 150 mJ/cm^2), in the absence then in the presence of active ingredient, successively the alpha-L-glutamyltryptamine (Glu-Tryp), L-methionyltryptamine (Met-Tryp) and L-tryptophantryptamine (Trp-Tryp).
The neurogenic inflammatory response is evaluated by the measure of the rate of pro-inflammatory interleukine-6 (IL-6) which are produced by the PC 12 cells.

[3] = test system: immune monocyte cells, the THP-1 line; assay: Test 4: stimulation of the neuro immuno-cutaneous system (IL-1β produced by THP-1 monocytes given supernatants of treated PC 12 cells); format: cell-based; conditions: supernatant added to THP-1, non treated supernatant control 40
Experimental: Test 4: stimulation of the neuro immuno-cutaneous system with the alpha-L-glutamyltryptamine, L-methionyltryptamine or L-tryptophantryptamine.
PC 12 cells are differentiated according to a special protocol to avoid artefacts. After a brief deprivation of growth and differentiation factors, PC 12 are incubated in different concentrations of pseudodipeptides, successively the alpha-L-glutamyltryptamine (Glu-Tryp), L-methionyltryptamine (Met-Tryp) and L-tryptophantryptamine (Trp-Tryp).
After a five days-incubation, the cellular supernatants containing neuromediators and miscellaneous secretions are sampled then introduced in the culture of immune monocyte cells, the THP-1 line.
The effect on the neuro immuno-cutaneous system is observed by measuring the rate of IL-1β interleukines produced by the monocyte cells in response to the addition of supernatants coming from the culture of PC 12 cells.
The results are compared to two controls: the first one with immune cells without supernatant, the second one containing immune cells with supernatant but non treated.

PC 12 cells [4] = assay: Test 2: slowdown of the neurodegeneration process of PC 12 submitted to a deprivation of serum (LDH release); format: cell-based, murine; conditions: serum deprivation of nine days, average of six measures
Source text: as §1, §2
Test 2: anti-aging effect of the alpha-L-glutamyltryptamine, L-methionyltryptamine and L-tryptophantryptamine with the slowdown of the neurodegeneration process of PC 12 submitted to a deprivation of serum.
A deprivation of serum is applied to PC 12 cells in order to imitate the aging effects. The neurodegeneration process is followed, in the absence then in the presence of active ingredient, successively the alpha-L-glutamyltryptamine (Glu-Tryp), L-methionyltryptamine (Met-Tryp) and L-tryptophantryptamine (Trp-Tryp), by a kinetic measure of the release in the culture medium of lactico-dehydrogenase enzyme (LDH).
The results are expressed in relative survival rate given by the LDH activity ratio according to the following equation: […]
The values listed in the tables hereafter are average values obtained from six measures after a serum deprivation of nine days.

[5] = 0.05 mM on PC 12, five days-incubation
[6] = 0.1 mM on PC 12, five days-incubation

Compound: CSCC[C@H](N)C(=O)NCCc1c[nH]c2ccccc12 [Met-Tryp, L-methionyltryptamine]
- % of protection (PC 12 cells [1]; 0.05 mM): 20%
- % of protection (PC 12 cells [1]; 0.1 mM): 32%
- % of protection (PC 12 cells [1]; 0.48 mM): 42%
- % of protection (PC 12 cells [1]; 0.85 mM): 53%
- % of protection (PC 12 cells [1]; 1.91 mM): 65%
- produced IL-6 rate (PC 12 cells [2]; 0.1 mM): 290 pg/mL
- produced IL-6 rate (PC 12 cells [2]; 0.48 mM): 210 pg/mL
- produced IL-6 rate (PC 12 cells [2]; 0.85 mM): 85 pg/mL
- produced IL-1β rate [3, 5]: 42 pg/mL
- produced IL-1β rate [3, 6]: 55 pg/mL
- produced IL-1β rate ([3]; 0.48 mM on PC 12, five days-incubation): 85 pg/mL
- improvement of the survival time (%) (PC 12 cells [4]; 0.1 mM): +12%
- improvement of the survival time (%) (PC 12 cells [4]; 0.48 mM): +15%
- improvement of the survival time (%) (PC 12 cells [4]; 0.85 mM): +28%

Compound: N[C@@H](Cc1c[nH]c2ccccc12)C(=O)NCCc1c[nH]c2ccccc12 [Trp-Tryp, L-tryptophantryptamine]
- % of protection (PC 12 cells [1]; 0.05 mM): 22%
- % of protection (PC 12 cells [1]; 0.1 mM): 35%
- % of protection (PC 12 cells [1]; 0.45 mM): 45%
- % of protection (PC 12 cells [1]; 0.85 mM): 58%
- % of protection (PC 12 cells [1]; 1.80 mM): 66%
- produced IL-6 rate (PC 12 cells [2]; 0.1 mM): 305 pg/mL
- produced IL-6 rate (PC 12 cells [2]; 0.45 mM): 210 pg/mL
- produced IL-6 rate (PC 12 cells [2]; 0.85 mM): 100 pg/mL
- produced IL-1β rate [3, 5]: 44 pg/mL
- produced IL-1β rate [3, 6]: 60 pg/mL
- produced IL-1β rate ([3]; 0.45 mM on PC 12, five days-incubation): 92 pg/mL
- improvement of the survival time (%) (PC 12 cells [4]; 0.1 mM): +17%
- improvement of the survival time (%) (PC 12 cells [4]; 0.45 mM): +20%
- improvement of the survival time (%) (PC 12 cells [4]; 0.85 mM): +30%

Compound: vitamin E [Vit. E, reference compound]
- % of protection (PC 12 cells [1]; 2 mM): 34%
